Source: patent publication US20100240763A1, “Method to Determine and Biomarker for Treatment Efficacy With Ssri, Snri, and Sari Antidepressants” (priority 2006, published 2010)
“Also recorded” adds a separate entry of the source.

Columns and labels:
[1] = tested on: BDNF^Met/Met, BDNF^+/− and wild-type mice; experiment: open-field test after long-term fluoxetine; format: in vivo; conditions: fluoxetine orally 18 mg/kg of body weight per day for 21 days vs vehicle
Experimental: In the open-field test, percentage of time spent in the center in the absence (H2O) or presence of fluoxetine (drug) treatment was measured. […] All results are presented as means±SEM determined from analysis of eight mice per genotype (*P<0.05, **P<0.01). […] BDNF^Met/Met were treated orally with fluoxetine (18 mg/kg of body weight per day) or vehicle for 21 days before assessment in two tests: open field and novelty-induced hypophagia.

[2] = tested on: transgenic mice homozygous for the G196A polymorphism and control wild-type mice; experiment: anxiety-related behaviors in conflict/stress tests (open field, elevated plus maze, novelty induced hypophagia) after chronic fluoxetine; format: in vivo; conditions: chronic administration
Experimental: Second, we determined that these mice have increased anxiety-related behaviors as assessed by 3 conflict/stress tests (open field, elevated plus maze, novelty induced hypophagia). These tests for anxiety differ from those used in human studies in that the animals' anxiety-related behaviors are assessed after placement in a stressful environment.

SMILES: CNCCC(Oc1ccc(C(F)(F)F)cc1)c1ccccc1 (stereo not drawn) [fluoxetine]
- entries into the center ([1]; BDNF^Met/Met mice): blunted response
- time spent in the center ([1]; BDNF^Met/Met mice, 18 mg/kg/day): blunted response; also recorded: Decreased response
- entries into the center ([1]; wild-type mice): increase in entries into the center
- time spent in the center ([1]; wild-type mice): significant increase
- anxiety-related behaviors ([2]; control wild-type mice): could robustly diminish
- reversal of anxiety-related behaviors ([2]; transgenic mice homozygous for the G196A polymorphism): could not reverse
